From ChEMBL document CHEMBL5038586, “Thiazolidinedione "Magic Bullets" Simultaneously Targeting PPARγ and HDACs: Design, Synthesis, and Investigations of their In Vitro and In Vivo Antitumor Effects” (J Med Chem, 2021)
Activity calls are given as the source filed them. The calls are words filed in the database; no cut-off is given here.

Key:
SH-SY5Y [1] = test: Cytotoxicity against human SH-SY5Y cells assessed as cell death incubated for 20 hrs measured by DNS assay; type: functional
Histone deacetylase 4 [2] = target: T1, Histone deacetylase 4 (Homo sapiens, UniProt P56524); test: Inhibition of recombinant human HDAC4 using Boc-Lys (trifluoroacetyl)-AMC as substrate preincubated for 1 hr followed by substrate addition and measured after 1 hr by micro plate reader analysis
T1 sequence (P56524 whole entry): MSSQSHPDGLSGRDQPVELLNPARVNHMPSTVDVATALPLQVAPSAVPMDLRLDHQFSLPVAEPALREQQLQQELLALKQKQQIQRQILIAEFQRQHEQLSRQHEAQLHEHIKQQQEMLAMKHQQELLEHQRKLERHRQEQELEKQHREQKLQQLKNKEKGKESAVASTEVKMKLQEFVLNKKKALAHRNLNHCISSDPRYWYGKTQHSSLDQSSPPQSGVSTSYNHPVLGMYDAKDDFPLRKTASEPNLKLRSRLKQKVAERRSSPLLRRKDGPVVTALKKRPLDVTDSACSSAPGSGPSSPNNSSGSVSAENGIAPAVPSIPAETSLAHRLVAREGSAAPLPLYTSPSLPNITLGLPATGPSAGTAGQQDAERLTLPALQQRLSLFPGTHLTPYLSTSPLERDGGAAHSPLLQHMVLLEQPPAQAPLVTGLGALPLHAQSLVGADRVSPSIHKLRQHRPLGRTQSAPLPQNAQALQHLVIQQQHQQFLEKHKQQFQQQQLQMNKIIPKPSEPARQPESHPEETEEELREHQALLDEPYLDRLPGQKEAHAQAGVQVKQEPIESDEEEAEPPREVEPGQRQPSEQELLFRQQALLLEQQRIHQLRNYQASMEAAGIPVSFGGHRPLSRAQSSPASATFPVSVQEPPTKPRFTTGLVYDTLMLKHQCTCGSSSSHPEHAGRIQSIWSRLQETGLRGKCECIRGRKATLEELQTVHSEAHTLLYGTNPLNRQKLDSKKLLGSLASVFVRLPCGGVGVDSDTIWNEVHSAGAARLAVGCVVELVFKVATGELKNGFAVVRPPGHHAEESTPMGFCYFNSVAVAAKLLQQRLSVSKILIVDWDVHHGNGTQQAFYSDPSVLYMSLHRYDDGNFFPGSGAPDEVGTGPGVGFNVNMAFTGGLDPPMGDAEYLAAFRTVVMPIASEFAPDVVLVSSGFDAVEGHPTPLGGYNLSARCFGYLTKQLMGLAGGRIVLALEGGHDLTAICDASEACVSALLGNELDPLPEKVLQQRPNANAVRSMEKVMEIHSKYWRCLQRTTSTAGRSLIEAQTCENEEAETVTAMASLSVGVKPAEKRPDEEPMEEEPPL

HS27 [3] = test: Cytotoxicity against human HS-27 cells assessed as cell death incubated for 20 hrs measured by DNS assay; type: toxicity, cell-based; details: hs27, 20 h
CCRF-CEM [4] = test: Cytotoxicity against human CEM cells assessed as cell death incubated for 20 hrs measured by DNS assay; type: functional
Histone deacetylase 8 = target: T2, Histone deacetylase 8 (Homo sapiens, UniProt Q9BY41); test: Inhibition of recombinant human HDAC8 using Boc-Lys (trifluoroacetyl)-AMC as substrate preincubated for 1 hr followed by substrate addition and measured after 1 hr by micro plate reader analysis
T2 sequence (Q9BY41 whole entry): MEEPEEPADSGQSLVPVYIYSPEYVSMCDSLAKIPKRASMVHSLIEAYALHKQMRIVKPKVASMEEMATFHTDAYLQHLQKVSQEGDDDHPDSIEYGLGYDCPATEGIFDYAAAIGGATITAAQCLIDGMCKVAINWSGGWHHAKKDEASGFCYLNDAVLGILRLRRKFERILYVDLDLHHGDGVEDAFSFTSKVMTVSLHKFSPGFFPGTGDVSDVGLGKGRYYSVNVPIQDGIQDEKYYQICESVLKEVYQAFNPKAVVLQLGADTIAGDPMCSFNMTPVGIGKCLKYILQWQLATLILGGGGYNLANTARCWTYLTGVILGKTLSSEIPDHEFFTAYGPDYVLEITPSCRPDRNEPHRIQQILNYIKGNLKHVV

[5] = target: T3, Histone deacetylase 8 (Homo sapiens) (UniProt Q9BY41); test: Inhibition of recombinant human HDAC8 using Boc-Lys (trifluoroacetyl)-AMC as substrate ay 35 uM preincubated for 1 hr followed by substrate addition and measured after 1 hr by micro plate reader analysis
T3 sequence (whole entry): T2 sequence (Q9BY41 whole entry)

Histone deacetylase 4 [6] = target: T1, Histone deacetylase 4; test: Inhibition of recombinant human HDAC4 using Boc-Lys (trifluoroacetyl)-AMC as substrate ay 35 uM preincubated for 1 hr followed by substrate addition and measured after 1 hr by micro plate reader analysis
HeLa [7] = test: Cytotoxicity against human HeLa cells assessed as cell death incubated for 20 hrs measured by DNS assay; type: functional
MDA-MB-231 [8] = test: Cytotoxicity against human MDA-MB-231 cells assessed as cell death incubated for 20 hrs measured by DNS assay; type: functional
Ramos [9] = test: Cytotoxicity against human Ramos cells assessed as cell death incubated for 20 hrs measured by DNS assay; type: functional
HeLa [10] = test: Cytotoxicity against human HeLa cells assessed as cell death incubated at 10 uM for 20 hrs measured by DNS assay; type: functional
CCRF-CEM [11] = test: Cytotoxicity against human CEM cells assessed as cell death incubated at 50 uM for 20 hrs measured by DNS assay; type: functional
MDA-MB-231 [12] = test: Cytotoxicity against human MDA-MB-231 cells assessed as cell death incubated at 10 uM for 20 hrs measured by DNS assay; type: functional
Ramos [13] = test: Cytotoxicity against human Ramos cells assessed as cell death incubated at 10 uM for 20 hrs measured by DNS assay; type: functional
SH-SY5Y [14] = test: Cytotoxicity against human SH-SY5Y cells assessed as cell death incubated at 10 uM for 20 hrs measured by DNS assay; type: functional
CCRF-CEM [15] = test: Cytotoxicity against human CEM cells assessed as cell death incubated at 10 uM for 20 hrs measured by DNS assay; type: functional
[16] = Selectivity index, ratio of CC50 for human HS-27 cells to CC50 for human Ramos cells; type: functional
[17] = Selectivity index, ratio of CC50 for human HS-27 cells to CC50 for human CEM cells; type: functional
HS27 [18] = test: Cytotoxicity against human HS-27 cells assessed as cell death incubated at 10 uM for 20 hrs measured by DNS assay; type: toxicity, cell-based; details: hs27, 20 h
[19] = Selectivity index, ratio of CC50 for human HS-27 cells to CC50 for human HeLa cells; type: functional
[20] = Selectivity index, ratio of CC50 for human HS-27 cells to CC50 for human MDA-MB-231 cells; type: functional
HL-60 = test: Cytotoxicity against human HL-60 cells assessed as cell death incubated at 10 uM for 20 hrs measured by DNS assay; type: functional

SMILES	IC50 (Histone deacetylase 4 [2]) [nM]	IC50 (Histone deacetylase 8) [µM]	inhibition [5]	inhibition (Histone deacetylase 4 [6])	also measured
O=C(COc1ccc2cc(/C=C3/SC(=O)NC3=O)ccc2c1)Nc1ccc(Br)cc1F	1900	> 50			CC50 (SH-SY5Y [1]): 16 µM; CC50 (HS27 [3]): 57 µM; CC50 (CCRF-CEM [4]): 40.9 µM
CCOc1ccc2nc(NC(=O)COc3ccc4cc(/C=C5/SC(=O)NC5=O)ccc4c3)sc2c1	3600	17	Active	Active	
Cc1cc(Br)ccc1NC(=O)COc1ccc2cc(/C=C3/SC(=O)NC3=O)ccc2c1	550	7.4			CC50 (SH-SY5Y [1]): 91.1 µM; CC50 (HeLa [7]): 9.9 µM
O=C(COc1ccc2cc(/C=C3/SC(=O)NC3=O)ccc2c1)Nc1ccccc1	2100	4.5	Active	Active	
O=C(COc1ccc2cc(/C=C3/SC(=O)NC3=O)ccc2c1)Nc1c(F)cc(F)cc1Br	1100	> 50			CC50 (MDA-MB-231 [8]): 9.8 µM; CC50 (SH-SY5Y [1]): 21.8 µM; CC50 (HeLa [7]): 10.4 µM; CC50 (HS27 [3]): 39.9 µM; CC50 (CCRF-CEM [4]): 9.6 µM; CC50 (Ramos [9]): 9.6 µM
CCc1ccc(CCOc2ccc(CC3SC(=O)NC3=O)cc2)nc1 (stereo not given) [PIOGLITAZONE]					Activity (HeLa [10]): 0%; Activity (CCRF-CEM [11]): 0%
O=C(COc1ccc2cc(/C=C3/SC(=O)NC3=O)ccc2c1)Nc1cc(Cl)cc(C(F)(F)F)c1	4000	> 50	Active	Active	
O=C(COc1ccc2cc(/C=C3/SC(=O)NC3=O)ccc2c1)Nc1ccc(Br)cc1	2900	16			CC50 (HeLa [7]): 10.1 µM
COc1cccc(NC(=O)COc2ccc3cc(/C=C4/SC(=O)NC4=O)ccc3c2)c1	1600	7.6	Active	Active	Activity (MDA-MB-231 [12]): >40%; Activity (Ramos [13]): >40%; CC50 (MDA-MB-231 [8]): 9.8 µM; Activity (SH-SY5Y [14]): 0%; Activity (CCRF-CEM [15]): >40%; Selectivity Index [16]: >10; Selectivity Index [17]: >10; Activity (HS27 [18]): 24.69%; CC50 (HeLa [7]): 10.4 µM; Selectivity Index [19]: >10; Selectivity Index [20]: >10; CC50 (CCRF-CEM [4]): 10.7 µM; CC50 (Ramos [9]): 9.3 µM; Activity (HL-60): 0%
O=C(COc1ccc2cc(/C=C3/SC(=O)NC3=O)ccc2c1)Nc1cccc(F)n1	840	7.2	Active	Active	
O=C(COc1ccc2cc(/C=C3/SC(=O)NC3=O)ccc2c1)Nc1ccc([N+](=O)[O-])cc1	1700	4			CC50 (MDA-MB-231 [8]): 55.8 µM
O=C(COc1ccc2cc(/C=C3/SC(=O)NC3=O)ccc2c1)Nc1cccc(Cl)c1	3800	> 50	Active	Active	Activity (MDA-MB-231 [12]): 2.84%; Activity (Ramos [13]): >40%; Activity (SH-SY5Y [14]): 10.79%; Activity (HeLa [10]): 29.68%; Activity (CCRF-CEM [15]): >40%; Selectivity Index [16]: >10; Selectivity Index [17]: >10; Activity (HS27 [18]): 22.56%; CC50 (CCRF-CEM [4]): 10.6 µM; CC50 (Ramos [9]): 9.1 µM; Activity (HL-60): 27.58%
Cc1cc(NC(=O)COc2ccc3cc(/C=C4/SC(=O)NC4=O)ccc3c2)no1	1700	> 50	Active	Active	
O=C(COc1ccc2cc(/C=C3/SC(=O)NC3=O)ccc2c1)Nc1ccc(F)cc1	1600	6.6	Active	Active	
Cc1cccc(NC(=O)COc2ccc3cc(/C=C4/SC(=O)NC4=O)ccc3c2)n1	1100	7.5	Active	Active	
O=C(COc1ccc2cc(/C=C3/SC(=O)NC3=O)ccc2c1)Nc1ccc(Cl)c(Cl)c1	5500	> 50	Active	Active	
Cc1ccc(NC(=O)COc2ccc3cc(/C=C4/SC(=O)NC4=O)ccc3c2)cc1Cl	1100	> 50	Active	Active	
O=C(COc1ccc2cc(/C=C3/SC(=O)NC3=O)ccc2c1)Nc1cccc(C(F)(F)F)c1	2500	> 50	Active	Active	Activity (MDA-MB-231 [12]): 5.96%; Activity (Ramos [13]): >40%; Activity (SH-SY5Y [14]): 0%; Activity (HeLa [10]): 39.09%; Activity (CCRF-CEM [15]): 25.87%; Selectivity Index [16]: >10; CC50 (Ramos [9]): 6.2 µM; Activity (HL-60): 19.55%
O=C(COc1ccc2cc(/C=C3/SC(=O)NC3=O)ccc2c1)Nc1ccc(F)cc1F	3900	> 50	Active	Active	
O=C(COc1ccc2cc(/C=C3/SC(=O)NC3=O)ccc2c1)Nc1nc2ccccc2s1	420	2.7	Active	Active	
O=C(COc1ccc2ccccc2c1/C=C1\SC(=O)NC1=O)Nc1ccc([N+](=O)[O-])cc1	15000	2.3			
COc1ccc(NC(=O)COc2ccc3cc(/C=C4/SC(=O)NC4=O)ccc3c2)cc1	4700	> 50	Active	Active	
O=C(COc1ccc2cc(/C=C3/SC(=O)NC3=O)ccc2c1)Nc1ccc(Br)c(Br)c1	4900	> 50	Active	Active	
O=C(COc1ccc2cc(/C=C3/SC(=O)NC3=O)ccc2c1)Nc1ccccn1	17000	> 50	Active	Active	
O=C(CCCCCCC(=O)Nc1ccccc1)NO [VORINOSTAT]					CC50 (HeLa [7]): 2.8 µM; CC50 (CCRF-CEM [4]): 2.5 µM
Cc1cccc2sc(NC(=O)COc3ccc4cc(/C=C5/SC(=O)NC5=O)ccc4c3)nc12	1200	5.8	Active	Active	
O=C(CN1C(=O)S/C(=C/c2ccccn2)C1=O)Nc1nc2ccccc2s1		9.3			
